Measured values as given in patent US6120997A, “Nucleic acid binders having an hydroxyamine motif” (The Scripps Research Institute, priority 1998, dated 2000).
Read-outs that look alike come from different tables or passages of the source.

Experiments:
Neo16-bd = assay: SPR binding of aminoglycosides to Neo16-bd aptamer
Description: Conditions: 10 mM HEPES (pH 7.4), 0.1 mM EDTA and NaCl as indicated.
The binding of aminoglycosides to RNA is likely to involve substantial ionic contributions and therefore should be strongly influenced by competing buffer ions. […] We studied the salt dependence of neomycin B binding to RBE3, RBE3-neg and Neo16-bd (FIG. 14) by varying the concentration of NaCl included in the injection buffer (10 mM HEPES, pH 7.4, 0.1 mM EDTA). […] This neomycin binding motif was obtained by in vitro selection under conditions of high ionic strength.
To further improve our understanding of specific aminoglycoside recognition, we have also included an artificial aminoglycoside receptor that was evolved in vitro to recognize an aminoglycoside. A number of RNA aptamers for small molecules have been reported in recent years. Among them are aptamers that recognize the aminoglycosides tobramycin, lividomycin and kanamycin.
For comparison, the corresponding values for AS-wt are also included.
(§1) General Procedures for SPR Binding Studies done in Example 5. Samples were prepared by serial dilutions from stock solutions in RNase free microfuge tubes (Ambion) and were centrifuged at 14000 rpm for degassing. Unless otherwise noted, all binding studies were carried out using HBS buffer (Pharmacia Biosensor AB) which was used as obtained. All procedures for binding studies were automated as methods using repetitive cycles of sample injection and regeneration. Typically, buffer was injected in the first two cycles to establish a stable baseline value. Samples were injected at a flowrate of […] using either the KINJECT command. All aminoglycoside samples were injected from autoclaved 7 mm plastic vials that were capped with pierceable plastic crimp caps. To minimize carry over, samples were injected in order of increasing concentration. The running buffer was identical to the injection buffer.

RBE3-neg = assay: SPR binding of aminoglycosides to RBE3-neg; conditions: 25 C; for Kd: pH 7.0, 10 mM HEPES, 150 mM NaCl, 0.1 mM EDTA, Scatchard slope; for Scatchard plot x-axis intercept (RBE3-neg): pH 7.0, 150 mM NaCl
Description: FIGS. 9A and 9B illustrate neomycin B binding to RBE3, RBE3-neg and wt-RRE-II. (A) Semilogarithmic plot. […] Conditions: pH 7.0, 10 mM HEPES, 150 mM NaCl, 0.1 mM EDTA, […].
FIGS. 10A and 10B illustrate paromomycin binding to RBE3, RBE3-neg and wt-RRE-II. (A) Semilogarithmic plot; the dashed line indicates the binding of neomycin B to wt-RRE-II for comparison (B) Scatchard plot. […] Conditions: pH 7.0, 10 mM HEPES, 150 mM NaCl, 0.1 mM EDTA, […].
Binding of the aminoglycoside to all three RNA oligonucleotides is observed starting in the low nanomolar concentration range and is non-saturable over the concentration range investigated. […] The high degree of non-specific binding is not surprising considering that aminoglycosides are highly charged polycations that tend to associate nonspecifically with the polyanionic phosphate backbone of RNA. […] Data points corresponding to 0.5 or more equivalents of neomycin B represent equilibrium values and can be analyzed with respect to stoichiometry and affinity of aminoglycoside binding. […] Both sequences bind one molecule of neomycin B with submicromolar affinity followed by weaker association with several additional equivalents of the antibiotic.
Samples were prepared by serial dilutions from stock solutions in RNase free microfuge tubes (Ambion) and were centrifuged at 14000 rpm for degassing. Buffers were filtered through sterile 0.2 &m nylon membranes (Nalgene) under vacuum, except for BIA certified HBS buffer (Pharmacia Biosensor AB) which was used as obtained. All procedures for binding studies were automated as methods using repetitive cycles of sample injection and regeneration. Typically, buffer was injected in the first two cycles to establish a stable baseline value. Samples were injected at a flowrate of 5-10 &L/min using either the KINJECT or the COINJECT command. All aminoglycoside and Rev27 samples were injected from autoclaved 7 mm plastic vials that were capped with pierceable plastic crimp caps. To minimize carry over, samples were injected in order of increasing concentration. The running buffer was identical to the injection buffer, except for the salt dependence study where a single running buffer was used for all injections. Expected values for the equilibrium response of one equivalent of analyte were calculated from the relative molecular weight of the analyte and the immobilized RNA ligand in each flowcells. These values were adjusted by multiplying with a factor of 0.8 or 0.57 for Rev27 or aminoglycosides respectively. These factors arise from the different molar refractive indices of RNA and the analyte and were determined from the Scatchard plot x-axis intercepts of the 1:1 binding isotherms for Rev27 and neomycin B.
Binding Studies with Aminoglycosides. […]

[1] = test system: wt-RRE-II, RBE3 and RBE3-neg; assay: SPR binding of aminoglycosides to RRE related RNAs; design: species or system HIV-1
Description: Samples were prepared by serial dilutions from stock solutions in RNase free microfuge tubes (Ambion) and were centrifuged at 14000 rpm for degassing. […] All procedures for binding studies were automated as methods using repetitive cycles of sample injection and regeneration. Typically, buffer was injected in the first two cycles to establish a stable baseline value. […] To minimize carry over, samples were injected in order of increasing concentration.
as §1

| SMILES | selectivity for binding Neo16-bd vs. RBE3 or RBE3-neg (Neo16-bd; 250 mM NaCl, 10 mM HEPES, pH 7.4, 0.1 mM EDTA) | specificity of Neo16bd relative to RBE3 (Neo16-bd; HBS buffer + 150 mM NH4Cl) | Kd (Neo16-bd; HBS buffer + 150 mM NH4Cl, read-out: Kd, Neo16bd, high salt) | Kd (RBE3-neg; read-out: Kd (RBE3-neg), neomycin B) | Scatchard plot x-axis intercept (RBE3-neg) (RBE3-neg) | discrimination between the three RRE related sequences (in words) [1] | weaker binding to the three RRE related RNAs than to AS-wt [1] | discrimination between paromomycin and neomycin derivatives of the same charge, Neo16bd (Neo16-bd) | Kd (RBE3-neg; read-out: Kd (RBE3-neg), paromomycin) | lower affinity compared to neomycin B ([1]; wt-RRE-II, RBE3 and RBE3-neg, equilibrium binding) |
| --- | --- | --- | --- | --- | --- | --- | --- | --- | --- | --- |
| NC[C@@H]1O[C@H](O[C@H]2[C@@H](O)[C@H](O[C@@H]3[C@@H](O)[C@H](N)C[C@H](N)[C@H]3O[C@H]3O[C@H](CN)[C@@H](O)[C@H](O)[C@H]3N)O[C@@H]2CO)[C@H](N)[C@@H](O)[C@@H]1O [Neomycin B] | approximately 100 fold | greater than 300 fold | < 10 nM | 160 nM | 0.98 | no discrimination | 12 fold | – | – | – |
| NC[C@@H]1O[C@H](O[C@H]2[C@@H](O)[C@H](O[C@@H]3[C@@H](O)[C@H](N)C[C@H](N)[C@H]3O[C@H]3O[C@H](CO)[C@@H](O)[C@H](O)[C@H]3N)O[C@@H]2CO)[C@H](N)[C@@H](O)[C@@H]1O [Paromomycin] | – | – | – | – | 1.05 | – | – | greater than 20 fold | 3100 nM | approximately 15 fold |
